Measurements published in patent US12275734B1, “Pleuromutilin onium salt derivative containing a 3H-imidazo[4,5-c]pyridine side chain, and a preparation method and application thereof” (SHAANXI UNIVERSITY OF SCIENCE AND TECHNOLOGY, priority 2024, dated 2025).
Like-named read-outs stand apart in the source and are kept apart here. Values belong to the compound of their own block, whether it stands above or below them.

Key:
Type in all cases: cell-based
[1] = system: A. baumannii ATCC 19606; test: MIC, broth microdilution; conditions: Acinetobacter baumannii
Method: (§1) The minimum inhibitory concentration of 3H-imidazo[4,5-C]pyridine pleuromutilin onium salt derivatives against the tested pathogenic microorganisms were determined by broth microdilution method, with valnemulin and retapamulin as positive controls.
(§2) The experimental strains included resistant Gram-positive bacteria: Methicillin-resistant S. aureus ATCC 33591; Methicillin-resistant S. aureus ATCC 43300; S. aureus ATCC 29213; Methicillin-resistant S. epidermidis ATCC 51625. Resistant Gram-negative bacteria: A. baumannii ATCC 19606; S. enterica ATCC14028; E. coli ATCC 25922; E. coli CMCC 44103. 9 clinically isolated resistant strains: MRSA-171; MRSA-575; MRSA-206; MRSA-222; MRSA-596; VRE-80; MDR-PA-126; MDR-KP-893; CR-AB-882.
(§3) (1) Preparation of MHB medium: Weigh 18.0 g of MHB medium pre-made powder, add it to 1 L of distilled water, heat and boil until completely dissolved, divide it into conical bottles, sterilize it by high pressure at 121° C. for 15 minutes, and set aside.
(§4) (2) Cultivate the experimental strain to the logarithmic growth phase: Under sterile conditions, inoculate the experimental strain into fresh MHB medium and culture it in a 37° C. constant temperature and humidity incubator for 16-24 hours. Adjust the bacterial solution concentration to 1.5×10^8 CFU/mL and then dilute it 200 times for later use.
(§5) (3) Preparation of storage solution: Weigh the sample to be tested, dissolve it in 1% DMSO solution, and prepare a storage solution with a concentration of 2560 μg/mL; weigh the positive control, dissolve it in sterile distilled water, and prepare a storage solution with a concentration of 2560 μg/mL.
(§6) (4) Preparation of bacterial suspension: Under sterile conditions, the experimental strain cultured to the logarithmic growth phase was calibrated to a 0.5 McFarland unit turbidity standard using MHB medium and then diluted at a ratio of 1:200 to prepare a bacterial suspension with a concentration of 5×10^5 CFU/mL for later use.
(§7) (5) Determination of MIC by two-fold microdilution method: Take a sterile 96-well plate, add 10 μL of the test compound at a concentration of 2560 μg/mL, and perform serial dilutions by the two-fold dilution method. At the same time, set up a negative control group without drug. Then add 190 μL of diluted bacterial solution to each well, so that the final bacterial solution concentration in each well is 5×10^5 CFU/mL, and incubate in a 37° C. constant temperature and humidity chamber for 24 hours.

[2] = system: E. coli ATCC 25922; test: MIC, broth microdilution; conditions: Escherichia coli
Method: as §1, §2, §3, §4, §5, §6, §7

[3] = system: E.coli CMCC 44103; test: MIC, broth microdilution; conditions: Escherichia coli
Method: as §1, §2, §3, §4, §5, §6, §7

[4] = system: Methicillin-resistant S. aureus ATCC 33591; test: MIC, broth microdilution; conditions: Staphylococcus aureus, ATCC 33591 / MRSA, read-out: Minimum inhibitory concentration MRSA^b
Method: as §1, §2, §3, §4, §5, §6, §7

[5] = system: Methicillin-resistant S. aureus ATCC 43300; test: MIC, broth microdilution; conditions: Staphylococcus aureus, ATCC 43300 / MRSA, read-out: Minimum inhibitory concentration MRSA^c
Method: as §1, §2, §3, §4, §5, §6, §7

[6] = system: Methicillin-resistant S. epidermidis ATCC 51625; test: MIC, broth microdilution; conditions: Staphylococcus epidermidis, ATCC 51625 / MRSE, read-out: Minimum inhibitory concentration MRSE^e
Method: as §1, §2, §3, §4, §5, §6, §7

[7] = system: S. aureus ATCC 29213; test: MIC, broth microdilution; conditions: Staphylococcus aureus
Method: as §1, §2, §3, §4, §5, §6, §7

[8] = system: S. enterica ATCC14028; test: MIC, broth microdilution; conditions: Salmonella enterica
Method: as §1, §2, §3, §4, §5, §6, §7

[9] = system: carbapenem-resistant Acinetobacter baumannii-882; test: MIC, clinical isolates; conditions: read-out: Antibacterial activity (MIC) CR-AB^j
Method: as §1, §2, §3, §4, §5, §6, §7

[10] = system: methicillin-resistant Staphylococcus aureus-171; test: MIC, clinical isolates; conditions: MRSA, read-out: Antibacterial activity (MIC) MRSA^b
Method: as §1, §2, §3, §4, §5, §6, §7

[11] = system: methicillin-resistant Staphylococcus aureus-206; test: MIC, clinical isolates; conditions: MRSA, read-out: Antibacterial activity (MIC) MRSA^d
Method: as §1, §2, §3, §4, §5, §6, §7

[12] = system: methicillin-resistant Staphylococcus aureus-222; test: MIC, clinical isolates; conditions: MRSA / MRSE, read-out: Antibacterial activity (MIC) MRSE^e
Method: as §1, §2, §3, §4, §5, §6, §7

[13] = system: methicillin-resistant Staphylococcus aureus-575; test: MIC, clinical isolates; conditions: MRSA, read-out: Antibacterial activity (MIC) MRSA^c
Method: as §1, §2, §3, §4, §5, §6, §7

[14] = system: methicillin-resistant Staphylococcus aureus-596; test: MIC, clinical isolates; conditions: MRSA, read-out: Antibacterial activity (MIC) MRSA^f
Method: as §1, §2, §3, §4, §5, §6, §7

[15] = system: multidrug-resistant Klebsiella pneumoniae-893; test: MIC, clinical isolates; conditions: clinical isolate MDR-KP-893
Method: as §1, §2, §3, §4, §5, §6, §7

[16] = system: multidrug-resistant Pseudomonas aeruginosa-126; test: MIC, clinical isolates; conditions: read-out: Antibacterial activity (MIC) MDR-PA^h
Method: as §1, §2, §3, §4, §5, §6, §7

[17] = system: vancomycin-resistant Enterococcus-80; test: MIC, clinical isolates; conditions: VRE, read-out: Antibacterial activity (MIC) VRE^g
Method: as §1, §2, §3, §4, §5, §6, §7

[18] = system: A549 Cells; test: Cytotoxicity, Cell Counting Kit-8; conditions: CCK-8, 24 hours incubation; read-out: CC50 A549 Cells
Method: (§8) Cell Counting Kit-8 was used to evaluate the cytotoxicity of the compounds.
(§9) (4) Cell culture: HepG2, HEK293 and A549 cells were evenly dispersed in culture medium, seeded into 96-well plates, and cultured under appropriate environmental conditions to keep the cells completely attached to the well walls.
(§10) (5) Compound treatment: Add different concentrations of compounds I-8 and I-9 to each well (the concentrations are 0.78, 1.56, 3.13, 6.25, 12.5, 25, 50 and 100 μM, respectively, and perform 6 parallel experiments). Set up a blank control group and a normal control group. After incubation for 24 hours, observe the cell condition, which observed under a microscope.
(§11) (6) CCK-8 solution treatment: Add CCK-8 solution to each well and incubate for 4 hours to allow it to react with the cells.
(§12) (7) Absorbance determination: Use a full-wavelength scanning multifunctional reader, place the 96-well plate in the instrument, oscillate to mix to make the color evenly distributed, and measure the absorbance value at 490 nm.
(§13) (8) Data analysis: Based on the measured absorbance values, the cell survival rate at different concentrations can be calculated. The median cytotoxic concentration was used to evaluate the cytotoxicity of the compound to A549, HEK293 and HepG2 cells.

[19] = system: HEK293 Cells; test: Cytotoxicity, Cell Counting Kit-8; conditions: CCK-8, 24 hours incubation; read-out: CC50 HEK293 Cells
Method: as §8, §9, §10, §11, §12, §13

[20] = system: HepG2 Cells; test: Cytotoxicity, Cell Counting Kit-8; conditions: CCK-8, 24 hours incubation; read-out: CC50 HepG2 Cells
Method: as §8, §9, §10, §11, §12, §13

[21] = ATCC19606, A. baumannii ATCC 19606, read-out: Minimum inhibitory concentration A.b.^f
[22] = ATCC25922, E. coli ATCC 25922, read-out: Minimum inhibitory concentration E.c.^h
[23] = CMCC44103, E.coli CMCC 44103, read-out: Minimum inhibitory concentration E.c.^i
[24] = Methicillin-resistant S. aureus ATCC 33591
[25] = Methicillin-resistant S. aureus ATCC 43300
[26] = Methicillin-resistant S. epidermidis ATCC 51625
[27] = ATCC29213, S. aureus ATCC 29213, read-out: Minimum inhibitory concentration S.a.^d
[28] = S. enterica ATCC14028, read-out: Minimum inhibitory concentration S.e.^g

MIC [1, 21]: 16 µg/mL | MIC [2, 22]: 32 µg/mL | MIC [3, 23]: 32 µg/mL | MIC [4, 24]: 8 µg/mL | MIC [5, 25]: 32 µg/mL | MIC [6, 26]: 8 µg/mL | MIC [7, 27]: 16 µg/mL | MIC [8, 28]: 32 µg/mL
SMILES: C=C[C@]1(C)C[C@@H](OC(=O)CSc2nc3cc[n+](Cc4ccc(C(C)(C)C)cc4)cc3[nH]2)[C@]2(C)[C@H](C)CC[C@]3(CCC(=O)[C@H]32)[C@@H](C)[C@@H]1O [Compound k, 5-(4-(tert-butyl)benzyl)-2-((2-(((3aR,4R,5R,7S,8S,9R,9aS,12R)-8-hydroxy-4,7,9,12-tetramethyl-3-oxo-7-vinyldecahydro-4,9a-propancyclopenta[8]cyclo-5-yl)oxy)-2-oxoethyl)thio)-3H-imidazo[4,5-C]pyridine-5-ium]

SMILES: C=C[C@]1(C)C[C@@H](OC(=O)CSc2nc3cc[n+](Cc4ccc(C#N)cc4)cc3[nH]2)[C@]2(C)[C@H](C)CC[C@]3(CCC(=O)[C@H]32)[C@@H](C)[C@@H]1O [Compound h, 5-(4-cyanobenzyl)-2-((2-(((3aR,4R,5R,7S,8S,9R,9aS,12R)-8-hydroxy-4,7,9,12-tetramethyl-3-oxo-7-vinyldecahydro-4,9a-propancyclopenta[8]cyclo-5-yl)oxy)-2-oxoethyl)thio)-3H-imidazo[4,5-C]pyridine-5-ium]
MIC ([1]; ATCC19606, read-out: Minimum inhibitory concentration A.b.^f): 1 µg/mL | MIC ([2]; ATCC25922, read-out: Minimum inhibitory concentration E.c.^h): 0.5 µg/mL | MIC ([3]; CMCC44103, read-out: Minimum inhibitory concentration E.c.^i): 2 µg/mL | MIC [4]: 2 µg/mL | MIC [5]: 0.5 µg/mL | MIC [6]: 0.25 µg/mL | MIC ([7]; ATCC29213, read-out: Minimum inhibitory concentration S.a.^d): 0.5 µg/mL | MIC ([8]; ATCC14028, read-out: Minimum inhibitory concentration S.e.^g): 2 µg/mL | MIC [9]: 64 µg/mL | MIC [10]: 16 µg/mL | MIC [11]: 4 µg/mL | MIC [12]: 16 µg/mL | MIC [13]: 32 µg/mL | MIC [14]: 8 µg/mL | Antibacterial activity (MIC) MDR-KP^i [15]: 16 µg/mL | MIC [16]: 32 µg/mL | MIC [17]: 2 µg/mL | CC50 [18]: > 100 µM | CC50 [19]: > 100 µM | CC50 [20]: 96.3 µM

MIC [1, 21]: 64 µg/mL | MIC [2, 22]: 64 µg/mL | MIC [3, 23]: 64 µg/mL | MIC [4, 24]: 64 µg/mL | MIC [5, 25]: 32 µg/mL | MIC [6, 26]: 64 µg/mL | MIC [7, 27]: 64 µg/mL | MIC [8, 28]: 32 µg/mL
SMILES: C=C[C@]1(C)C[C@@H](OC(=O)CSc2nc3cc[n+](Cc4cc(C)cc(C)c4)cc3[nH]2)[C@]2(C)[C@H](C)CC[C@]3(CCC(=O)[C@H]32)[C@@H](C)[C@@H]1O [Compound l, 5-(3,5-dimethylbenzyl)-2-((2-(((3aR,4R,5R,7S,8S,9R,9aS,12R)-8-hydroxy-4,7,9,12-tetramethyl-3-oxo-7-vinyldecahydro-4,9a-propancyclopenta[8]cyclo-5-yl)oxy)-2-oxoethyl)thio)-3H-imidazo[4,5-C]pyridine-5-ium]
